“Also recorded” adds a separate entry of the source.
Tests used:
[1] = tested on: rabbit gastric lipase (RGL) followed by porcine pancreatic lipase (PPL); test: Sequential in vitro digestion SGF (RGL) followed by SIF (PPL), pH-stat; format: in vitro ADME
Protocol: (§1) 10 wt % oil in water emulsions stabilised by 0.3 wt % polyoxyethylene sorbitan mono-oleate (Tween® 80) were prepared by mixing the Tween 80 into the oil phase at 40° C., then mixing with the water phase using a magnetic stirrer. An emulsion was then created using a Hielscher UP 400S ultrasonic probe homogeniser equipped with a 5 mm diameter rod-like probe by applying 100% amplitude at 100% cycle for 2 minutes whilst the sample was cooled using ice water.
(§2) The lipid emulsion (2 mL) containing 200 mg of fat was subjected to gastrointestinal in vitro lipolysis. […] For gastric digestion, the sample was incubated for 90 minutes with 8.5 mL of simulated gastric fluid (SGF), which consisted of 150 mM NaCl, 450 U/mL pepsin, 18 U/mL rabbit gastric lipase at 37° C. and a pH of 5.5.
The intestinal digestion step was performed in the pH stat where the pH was kept constant at 6.8 by addition of NaOH (0.05 M). […] The intestinal digestion step starts when the temperature reaches 37±0.5° C. The pH was adjusted to pH 6.8 and after incubation of two minutes at this pH and temperature, a pancreatin solution (5 mM tris, 150 mM NaCl at pH 6.8) was added. The final composition of the intestinal fluid was 10 mM CaCl2, 12 mM mixed bile salts, 0.75 mM phospholipid, 150 mM NaCl and 4 mM tris(hydroxymethyl)aminomethane buffer. The intestinal digestion step was carried out for 3 hours in a titration manager from Radiometer. During the intestinal phase of digestion, the kinetics of digestion were followed using a pH-stat (TIM856, Radiometer) technique and expressed as titratable acid (rather than fatty acid) that was calculated by the equation:
TA: Total titratable acid released, mmol; VNaoH: volume of NaOH used to titrate the released acid in 3 h, mL.

[2] = target: T1, porcine pancreatic lipase (from pancreatin) (Sus scrofa, UniProt P00591); test: In vitro lipolysis in simulated intestinal fluid (SIF model), pH-stat; format: in vitro ADME; conditions: SIF alone; emulsion with 200 mg fat; pH 6.8, 37° C.
T1 construct: pancreatin (Porcine, USP×8, P7585); purchased Sigma-Aldrich P7585; host or cells: porcine pancreas extract (pancreatin)
T1 sequence (P00591 1-450): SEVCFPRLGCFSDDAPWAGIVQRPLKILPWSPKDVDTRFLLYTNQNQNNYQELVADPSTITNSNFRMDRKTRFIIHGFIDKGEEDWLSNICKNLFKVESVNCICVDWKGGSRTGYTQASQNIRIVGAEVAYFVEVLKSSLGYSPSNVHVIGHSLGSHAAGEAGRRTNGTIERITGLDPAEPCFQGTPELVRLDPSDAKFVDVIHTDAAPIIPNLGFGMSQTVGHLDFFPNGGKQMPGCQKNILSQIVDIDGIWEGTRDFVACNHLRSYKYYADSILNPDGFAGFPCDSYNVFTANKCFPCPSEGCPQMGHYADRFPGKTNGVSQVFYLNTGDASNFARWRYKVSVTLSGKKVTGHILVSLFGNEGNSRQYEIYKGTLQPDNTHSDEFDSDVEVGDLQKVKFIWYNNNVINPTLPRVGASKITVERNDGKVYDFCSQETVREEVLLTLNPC
T1 sequence (P02703 23-112 partner): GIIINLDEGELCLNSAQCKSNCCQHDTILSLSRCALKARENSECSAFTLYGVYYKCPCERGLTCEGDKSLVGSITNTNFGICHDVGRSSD
Protocol: as §1, §2
The intestinal digestion step was performed in the pH stat where the pH was kept constant at 6.8 by addition of NaOH (0.05 M). […] The intestinal digestion step starts when the temperature reaches 37±0.5° C. The pH was adjusted to pH 6.8 and after incubation of two minutes at this pH and temperature, a pancreatin solution (5 mM tris, 150 mM NaCl at pH 6.8) was added. […] During the intestinal phase of digestion, the kinetics of digestion were followed using a pH-stat (TIM856, Radiometer) technique and expressed as titratable acid (rather than fatty acid) that was calculated by the equation: […]

SMILES: CCCC(=O)OCC(COC(=O)CCC)OC(=O)CCC [tributyrin]
- initial lipolysis rate in SIF ([1]; SGF-SIF sequential digestion (after pre-exposure to RGL)): 44.1 ± 8.8 µmol/min
- extent of gastric lipolysis / hydrolysis in the stomach ([1]; gastric compartment of the model): considerable digestion; also recorded: extensive hydrolysis in the stomach
- lipolysis by gastric lipase ([1]; indicated by decreased total fatty acid release in SIF after RGL pre-exposure): ~60%
- initial rate of lipolysis [2]: 223 ± 59 µmol/min
